Source: paper PMC10527514 (Gastroenterology, 2023)

Experiments:
Assay type in all cases: cell-based
[1] = biological target: GPR84 (Homo sapiens, UniProt Q9NQS5); test: Hit Hunter cAMP assay in cAMP Hunter cells
[2] = biological target: T1, PPARα (Homo sapiens, UniProt Q07869); test: PathHunter nuclear hormone receptor cell assay, chemiluminescence
T1 sequence (Q07869 1-468): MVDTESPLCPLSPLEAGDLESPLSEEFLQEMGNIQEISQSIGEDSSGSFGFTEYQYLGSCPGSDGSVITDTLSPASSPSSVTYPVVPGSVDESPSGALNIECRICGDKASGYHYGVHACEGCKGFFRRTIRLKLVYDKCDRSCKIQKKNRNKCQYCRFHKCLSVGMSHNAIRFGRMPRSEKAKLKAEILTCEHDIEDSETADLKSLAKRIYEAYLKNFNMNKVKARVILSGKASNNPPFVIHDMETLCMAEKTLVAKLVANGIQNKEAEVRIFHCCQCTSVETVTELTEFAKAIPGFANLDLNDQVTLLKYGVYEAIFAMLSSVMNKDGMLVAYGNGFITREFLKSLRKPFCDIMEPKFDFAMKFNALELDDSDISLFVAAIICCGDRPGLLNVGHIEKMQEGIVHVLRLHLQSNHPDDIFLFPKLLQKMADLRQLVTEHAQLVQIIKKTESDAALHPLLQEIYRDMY

[3] = biological target: T2, PPARγ (Homo sapiens, UniProt P37231); test: as above
T2 sequence (P37231 1-505): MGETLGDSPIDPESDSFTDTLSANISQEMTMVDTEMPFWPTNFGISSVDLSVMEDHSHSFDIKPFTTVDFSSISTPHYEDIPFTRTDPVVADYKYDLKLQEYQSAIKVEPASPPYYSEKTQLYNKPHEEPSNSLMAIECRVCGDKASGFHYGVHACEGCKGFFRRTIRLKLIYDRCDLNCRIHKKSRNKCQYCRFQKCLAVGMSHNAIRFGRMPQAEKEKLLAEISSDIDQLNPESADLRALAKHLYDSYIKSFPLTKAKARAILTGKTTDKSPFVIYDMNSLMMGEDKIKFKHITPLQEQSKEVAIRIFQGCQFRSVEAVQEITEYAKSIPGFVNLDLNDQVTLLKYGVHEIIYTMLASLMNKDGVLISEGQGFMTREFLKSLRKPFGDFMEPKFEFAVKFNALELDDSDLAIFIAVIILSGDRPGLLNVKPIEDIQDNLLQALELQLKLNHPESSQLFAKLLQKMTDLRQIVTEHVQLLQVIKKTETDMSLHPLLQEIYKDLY

Chain of GPR84 (Q9NQS5 whole entry): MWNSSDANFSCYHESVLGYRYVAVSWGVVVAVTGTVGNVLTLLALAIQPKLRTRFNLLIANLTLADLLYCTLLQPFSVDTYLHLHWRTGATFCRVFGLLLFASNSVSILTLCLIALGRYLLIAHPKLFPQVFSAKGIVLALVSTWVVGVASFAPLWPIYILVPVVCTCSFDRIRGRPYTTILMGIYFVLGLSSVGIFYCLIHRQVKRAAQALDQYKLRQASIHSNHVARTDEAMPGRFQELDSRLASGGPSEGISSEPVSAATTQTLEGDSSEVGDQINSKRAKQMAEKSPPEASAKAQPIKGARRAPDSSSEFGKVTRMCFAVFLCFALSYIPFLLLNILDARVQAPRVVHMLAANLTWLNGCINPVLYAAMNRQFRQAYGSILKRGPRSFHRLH

- EC50 [1]: 12 µM
- EC50 [2]: 4.4 µM
- EC50 [3]: 40 µM
SMILES: CCCCCOc1cccc(C(=O)O)c1C [SEFA-6179]
